IC50 data for 20 compounds are collected here from US9938276B2, “6,5-bicyclic octahydropyrrolopyridine orexin receptor antagonists” (Merck Sharp & Dohme Corp., priority 2014, dated 2018).

The IC50 is the concentration at which inhibition is half-maximal. Low readings indicate higher potency, high ones lower potency.

In assay [1] the target is human orexin-2 receptor (Homo sapiens (Human), UniProt O43614). Description: hOX2R FLIPR Ca2+ flux assay. Type of assay: cell-based. As to conditions: CHO cells expressing the receptor; agonist 70 pM Ala-6,12 human orexin-A. In a few lines: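 FLIPR Ca2+ flux, CHO cells, rat OX1R / human OX2R; 5 min cpd preinc, then 70 pM Ala-6,12 hOrexin-A final; buffer pH 7.4 w/ 2.5 mM probenecid; peak vs agonist-alone.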
(A change in cytosolic calcium serves as a functional read-out for many receptors and channels.)

Assay [2] deals with hOX1R (Homo sapiens, UniProt O43613). The assay can be described thus: hOX1R FLIPR Ca2+ flux assay. As to conditions: CHO cells expressing the receptor; agonist 70 pM Ala-6,12 human orexin-A. Format: cell-based.

human orexin-2 receptor, sequence (O43614 whole entry): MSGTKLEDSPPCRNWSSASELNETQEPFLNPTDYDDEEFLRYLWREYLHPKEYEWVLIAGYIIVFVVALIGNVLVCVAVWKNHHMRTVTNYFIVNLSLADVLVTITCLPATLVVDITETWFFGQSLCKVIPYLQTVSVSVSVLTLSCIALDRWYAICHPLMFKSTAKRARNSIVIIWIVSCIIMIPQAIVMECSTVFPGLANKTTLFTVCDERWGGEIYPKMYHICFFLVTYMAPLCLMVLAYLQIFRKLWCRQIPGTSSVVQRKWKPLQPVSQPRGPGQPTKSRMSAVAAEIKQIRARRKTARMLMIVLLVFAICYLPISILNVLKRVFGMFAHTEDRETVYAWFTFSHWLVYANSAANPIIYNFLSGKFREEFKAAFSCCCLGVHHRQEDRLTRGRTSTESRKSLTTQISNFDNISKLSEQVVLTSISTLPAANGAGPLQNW

Consider `N#Cc1ccnc(N2CC[C@@H]3CCN(C(=O)c4ccccc4OCC(F)(F)F)C[C@@H]32)c1` [Example E9, 2-[(3aR, 7aR)-6-{[2-(2,2,2-trifluoroethoxy)phenyl]carbonyl}octahydro-1H-pyrrolo[2,3-c]pyridin-1-yl]pyridine-4-carbonitrile], for which the IC50 in assay [1] is 319 nM; in assay [2], at least 10 µM.
Taken in the same sequence, the figures for `N#Cc1ccnc(N2CC[C@@H]3CCN(C(=O)c4ccccc4OCC(F)F)C[C@@H]32)c1` [Example E10, 2-[(3aR, 7aR)-6-{[2-(2,2-difluoroethoxy)phenyl]carbonyl}octahydro-1H-pyrrolo[2,3-c]pyridin-1-yl]pyridine-4-carbonitrile] were 139 nM and 10 µM.
As to `N#Cc1ccnc(N2CC[C@@H]3CCN(C(=O)c4cccnc4CC(F)(F)F)C[C@@H]32)c1` [Example E11, 2-[(3aR, 7aR)-6-{[2-(2,2,2-trifluoroethyl)pyridin-3-yl]carbonyl}octahydro-1H-pyrrolo[2,3-c]pyridin-1-yl]pyridine-4-carbonitrile], the IC50 in assay [1] was determined as 2110 nM; in assay [2], 10 µM.
Taken in the same sequence, the figures for `N#Cc1ccnc(N2CC[C@@H]3CCN(C(=O)c4ccccc4C4CC4)C[C@@H]32)c1` [Example E12, 2-{(3aR, 7aR)-6-[(2-cyclopropylphenyl)carbonyl]octahydro-1H-pyrrolo[2,3-c]pyridin-1-yl}pyridine-4-carbonitrile] were 81.6 nM and 10 µM.
On the same counts, the results for `COc1ccc(C(=O)N2CC[C@H]3CCN(c4cc(C#N)ccn4)[C@H]3C2)c(C2CC2)n1` [Example E13, 2-{(3aR, 7aR)-6-[(2-cyclopropyl-6-methoxypyridin-3-yl)carbonyl]octahydro-1H-pyrrolo[2,3-c]pyridin-1-yl}pyridine-4-carbonitrile] are 980 nM and 10 µM.
In the case of `N#Cc1ccnc(N2CC[C@@H]3CCN(C(=O)c4ccccc4-n4cccn4)C[C@@H]32)c1` [Example E14, 2-[(3aR, 7aR)-6-{[2-(1H-pyrazol-1-yl)phenyl]carbonyl}octahydro-1H-pyrrolo[2,3-c]pyridin-1-yl]pyridine-4-carbonitrile], the results for the IC50 in assay [1] and in assay [2] were 256 nM and 10 µM, respectively.
Taken in the same sequence, the figures for `N#Cc1ccnc(N2CC[C@@H]3CCN(C(=O)c4ccccc4C4CCC4)C[C@@H]32)c1` [Example E15, 2-{(3aR, 7aR)-6-[(2-cyclobutylphenyl)carbonyl]octahydro-1H-pyrrolo[2,3-c]pyridin-1-yl}pyridine-4-carbonitrile] were 31.1 nM and 9.72 µM.
Taken in the same sequence, the figures for `N#Cc1ccnc(N2CC[C@@H]3CCN(C(=O)c4ccccc4N4CCCC4)C[C@@H]32)c1` [Example E16, 2-{(3aR, 7aR)-6-[(2-pyrrolidin-1-ylphenyl)carbonyl]octahydro-1H-pyrrolo[2,3-c]pyridin-1-yl}pyridine-4-carbonitrile] were 98.9 nM and 10 µM.
Turning to `N#Cc1ccnc(N2CC[C@@H]3CCN(C(=O)c4nccnc4N4CCCC4)C[C@@H]32)c1` [Example E17, 2-{(3aR, 7aR)-6-[(3-pyrrolidin-1-ylpyrazin-2-yl)carbonyl]octahydro-1H-pyrrolo[2,3-c]pyridin-1-yl}pyridine-4-carbonitrile], the IC50 is 10000 nM in assay [1] and 10 µM in assay [2].
In the case of `N#Cc1ccnc(N2CC[C@@H]3CCN(C(=O)c4ncccc4-c4ccccc4)C[C@@H]32)c1` [Example E18, 2-{(3aR, 7aR)-6-[(3-phenylpyridin-2-yl)carbonyl]octahydro-1H-pyrrolo[2,3-c]pyridin-1-yl}pyridine-4-carbonitrile], the IC50 in assay [1] was 76.9 nM; in assay [2], at least 10 µM.
On to `CC(C)Oc1ncccc1C(=O)N1CC[C@H]2CCN(c3cc(C#N)ccn3)[C@H]2C1` [Example E19, 2-[(3aR, 7aR)-6-{[2-(1-methylethoxy)pyridin-3-yl]carbonyl}octahydro-1H-pyrrolo[2,3-c]pyridin-1-yl]pyridine-4-carbonitrile], for which the half-maximal inhibitory concentration (IC50) in assay [1] amounted to 1400 nM; in assay [2], 10 µM.
On the same counts, the results for `N#Cc1ccnc(N2CC[C@@H]3CCN(C(=O)c4ncccc4-n4nccn4)C[C@@H]32)c1` [Example E20, 2-[(3aR, 7aR)-6-{[3-(2H-1,2,3-triazol-2-yl)pyridin-2-yl]carbonyl}octahydro-1H-pyrrolo[2,3-c]pyridin-1-yl]pyridine-4-carbonitrile] are 1500 nM and at least 10 µM.
Take `N#Cc1ccnc(N2CC[C@@H]3CCN(C(=O)c4ccccc4OC(F)F)C[C@@H]32)c1` [Example E21, 2-[(3aR, 7aR)-6-{[2-(difluoromethoxy)phenyl]carbonyl}octa-hydro-1H-pyrrolo[2,3-c]pyridin-1-yl]pyridine-4-carbonitrile]: the IC50 stood at 1520 nM in assay [1] and 10 µM in assay [2].
On the same counts, the results for `N#Cc1ccnc(N2CC[C@@H]3CCN(C(=O)c4ccccc4C4CC4(F)F)C[C@@H]32)c1` (stereo partly drawn) [Example E22, 2-[(3aR, 7aR)-6-{[2-(2,2-difluorocyclopropyl)phenyl]carbonyl}octa-hydro-1H-pyrrolo[2,3-c]pyridin-1-yl]pyridine-4-carbonitrile] are 43.8 nM and 10 µM.
For the compound `N#Cc1ccnc(N2CC[C@@H]3CCN(C(=O)c4ccccc4-c4ncccn4)C[C@@H]32)c1` [Example E23, 2-{(3aR, 7aR)-6-[(2-pyrimidin-2-ylphenyl)carbonyl]octahydro-1H-pyrrolo[2,3-c]pyridin-1-yl}pyridine-4-carbonitrile], the half-inhibitory concentration (IC50) was 99.5 nM in assay [1] and at least 10 µM in assay [2].
Taken in the same sequence, the figures for `NC(=O)c1ccnc(N2CC[C@@H]3CCN(C(=O)c4ccccc4-n4nccn4)C[C@@H]32)c1` [Example F1, 2-((3aR,7aR)-6-(2-(2H-1,2,3-triazol-2-yl)benzoyl)octahydro-1H-pyrrolo[2,3-c]pyridin-1-yl)isonicotinamide] were 562 nM and at least 10 µM.
Taken in the same sequence, the figures for `N#Cc1ccnc(N2CC[C@@H]3C[C@@H](CO)N(C(=O)c4ccccc4-n4nccn4)C[C@@H]32)c1` [Example G1, 2-((3aR,5S,7aR)-6-(2-(2H-1,2,3-triazol-2-yl)benzoyl)-5-(hydroxymethyl)octahydro-1H-pyrrolo[2,3-c]pyridin-1-yl)isonicotinonitrile] were 8.2 nM and 2.75 µM.
Taken in the same sequence, the figures for `CCOC(=O)[C@@H]1C[C@H]2CCN(c3cc(C#N)ccn3)[C@H]2CN1C(=O)c1ccccc1-n1nccn1` [Example G2, (3aR,5S,7aR)-ethyl 6-(2-(2H-1,2,3-triazol-2-yl)benzoyl)-1-(4-cyanopyridin-2-yl)octahydro-1H-pyrrolo[2,3-c]pyridine-5-carboxylate] were 198 nM and at least 10 µM.
Take `N#Cc1ccnc(N2CC[C@@H]3C[C@@H](CO)N(C(=O)c4ccccc4-n4nccn4)C[C@@H]32)c1` [Example G4]: the IC50 is 2080 nM in assay [1] and 10 µM in assay [2].
For the compound `C[C@H]1C[C@H]2CCN(c3cc(C#N)ccn3)[C@H]2CN1C(=O)c1ccccc1-n1nccn1` [Example H1, 2-(6-(2-(2H-1,2,3-triazol-2-yl)benzoyl)-5-methloctahydro-1H-pyrrolo[2,3-c]pyridin-1-yl)isonicotinonitrile], the IC50 came out at 18.4 nM in assay [1] and 2.37 µM in assay [2].
